Reference: the kinase profiling compilation of Christmann-Franck et al. (2016)

Tests used:
Assay in all cases: radiometric filter-binding kinase assay
[1] = biological target: TBK1 (human) (UniProt Q9UHD2)
[2] = biological target: DYRK2 (human) (UniProt Q92630)
[3] = biological target: CaMK1 (human) (UniProt Q14012)
[4] = biological target: HIPK2 (human) (UniProt Q9H2X6)
[5] = biological target: MAP2K1 (human) (UniProt Q02750)
[6] = biological target: YES1 (human) (UniProt P07947)
[7] = biological target: MAPK9 (human) (UniProt P45984)
[8] = biological target: MARK3 (human) (UniProt P27448)
[9] = biological target: BTK (human) (UniProt Q06187)
[10] = biological target: PIM1 (human) (UniProt P11309)
[11] = biological target: EPHA2 (human) (UniProt P29317)
[12] = biological target: STK3 (human) (UniProt Q13188)
[13] = biological target: MAPK11 (human) (UniProt Q15759)
[14] = biological target: DYRK3 (human) (UniProt O43781)
[15] = biological target: PRKCA (human) (UniProt P17252)
[16] = biological target: BRSK2 (human) (UniProt Q8IWQ3)
[17] = biological target: MAPK8 (human) (UniProt P45983)
[18] = test system: RPS6KB1 (human), P23443 [T412E]
[19] = biological target: INSR (human) (UniProt P06213)
[20] = test system: AKT1 (human), P31749 [S473D]
[21] = biological target: MAPKAPK5 (human) (UniProt Q8IW41)
[22] = biological target: SYK (human) (UniProt P43405)
[23] = biological target: FLT1 (human) (UniProt P17948)
Sequence of FLT1 (human) (P17948 whole entry, looked up): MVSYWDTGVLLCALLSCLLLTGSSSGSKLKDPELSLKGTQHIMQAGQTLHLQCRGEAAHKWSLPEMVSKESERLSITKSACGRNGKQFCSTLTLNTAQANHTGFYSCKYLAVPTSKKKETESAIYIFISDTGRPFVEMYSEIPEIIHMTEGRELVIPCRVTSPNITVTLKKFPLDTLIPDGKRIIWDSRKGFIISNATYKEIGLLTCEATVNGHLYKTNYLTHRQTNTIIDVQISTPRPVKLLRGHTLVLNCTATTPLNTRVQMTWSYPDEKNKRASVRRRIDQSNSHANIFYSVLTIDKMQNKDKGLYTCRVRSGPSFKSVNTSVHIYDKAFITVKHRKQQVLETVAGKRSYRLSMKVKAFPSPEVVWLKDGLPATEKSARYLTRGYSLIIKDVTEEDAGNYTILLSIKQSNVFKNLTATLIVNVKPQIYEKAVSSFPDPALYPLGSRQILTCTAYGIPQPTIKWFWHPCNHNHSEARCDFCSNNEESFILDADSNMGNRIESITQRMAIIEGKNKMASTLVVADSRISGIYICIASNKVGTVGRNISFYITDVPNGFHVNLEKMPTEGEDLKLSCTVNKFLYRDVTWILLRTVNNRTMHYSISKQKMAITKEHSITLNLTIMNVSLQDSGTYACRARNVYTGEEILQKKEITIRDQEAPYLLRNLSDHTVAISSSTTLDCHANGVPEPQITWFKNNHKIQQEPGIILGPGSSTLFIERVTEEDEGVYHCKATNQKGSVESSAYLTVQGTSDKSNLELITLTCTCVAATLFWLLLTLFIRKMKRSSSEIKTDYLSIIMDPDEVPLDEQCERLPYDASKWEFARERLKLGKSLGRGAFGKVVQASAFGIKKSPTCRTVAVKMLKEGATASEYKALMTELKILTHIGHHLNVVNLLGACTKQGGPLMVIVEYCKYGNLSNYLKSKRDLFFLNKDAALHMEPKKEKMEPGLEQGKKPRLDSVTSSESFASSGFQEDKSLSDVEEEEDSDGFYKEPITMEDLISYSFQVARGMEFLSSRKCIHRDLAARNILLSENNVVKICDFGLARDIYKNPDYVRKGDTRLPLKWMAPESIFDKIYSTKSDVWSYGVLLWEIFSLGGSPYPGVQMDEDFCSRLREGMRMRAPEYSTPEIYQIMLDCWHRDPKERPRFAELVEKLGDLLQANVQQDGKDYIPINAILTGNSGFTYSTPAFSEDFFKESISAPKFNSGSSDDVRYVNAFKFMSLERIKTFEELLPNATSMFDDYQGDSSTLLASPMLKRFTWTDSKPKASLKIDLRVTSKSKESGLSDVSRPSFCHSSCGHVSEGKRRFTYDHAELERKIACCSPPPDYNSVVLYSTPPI

Sequence of MAPK9 (human) (P45984 whole entry, looked up): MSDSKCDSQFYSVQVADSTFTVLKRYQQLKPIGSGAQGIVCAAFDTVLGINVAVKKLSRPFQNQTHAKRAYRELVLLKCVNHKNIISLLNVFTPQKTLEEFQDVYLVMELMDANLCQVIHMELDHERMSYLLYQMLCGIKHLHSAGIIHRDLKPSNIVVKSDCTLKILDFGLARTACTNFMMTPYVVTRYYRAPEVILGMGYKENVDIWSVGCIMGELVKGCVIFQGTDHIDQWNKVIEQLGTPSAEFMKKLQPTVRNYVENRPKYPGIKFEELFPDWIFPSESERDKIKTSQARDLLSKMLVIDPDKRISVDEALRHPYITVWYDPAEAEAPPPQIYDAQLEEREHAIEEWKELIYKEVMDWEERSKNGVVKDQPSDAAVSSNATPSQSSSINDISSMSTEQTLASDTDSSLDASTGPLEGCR
Sequence of HIPK2 (human) (Q9H2X6 whole entry, looked up): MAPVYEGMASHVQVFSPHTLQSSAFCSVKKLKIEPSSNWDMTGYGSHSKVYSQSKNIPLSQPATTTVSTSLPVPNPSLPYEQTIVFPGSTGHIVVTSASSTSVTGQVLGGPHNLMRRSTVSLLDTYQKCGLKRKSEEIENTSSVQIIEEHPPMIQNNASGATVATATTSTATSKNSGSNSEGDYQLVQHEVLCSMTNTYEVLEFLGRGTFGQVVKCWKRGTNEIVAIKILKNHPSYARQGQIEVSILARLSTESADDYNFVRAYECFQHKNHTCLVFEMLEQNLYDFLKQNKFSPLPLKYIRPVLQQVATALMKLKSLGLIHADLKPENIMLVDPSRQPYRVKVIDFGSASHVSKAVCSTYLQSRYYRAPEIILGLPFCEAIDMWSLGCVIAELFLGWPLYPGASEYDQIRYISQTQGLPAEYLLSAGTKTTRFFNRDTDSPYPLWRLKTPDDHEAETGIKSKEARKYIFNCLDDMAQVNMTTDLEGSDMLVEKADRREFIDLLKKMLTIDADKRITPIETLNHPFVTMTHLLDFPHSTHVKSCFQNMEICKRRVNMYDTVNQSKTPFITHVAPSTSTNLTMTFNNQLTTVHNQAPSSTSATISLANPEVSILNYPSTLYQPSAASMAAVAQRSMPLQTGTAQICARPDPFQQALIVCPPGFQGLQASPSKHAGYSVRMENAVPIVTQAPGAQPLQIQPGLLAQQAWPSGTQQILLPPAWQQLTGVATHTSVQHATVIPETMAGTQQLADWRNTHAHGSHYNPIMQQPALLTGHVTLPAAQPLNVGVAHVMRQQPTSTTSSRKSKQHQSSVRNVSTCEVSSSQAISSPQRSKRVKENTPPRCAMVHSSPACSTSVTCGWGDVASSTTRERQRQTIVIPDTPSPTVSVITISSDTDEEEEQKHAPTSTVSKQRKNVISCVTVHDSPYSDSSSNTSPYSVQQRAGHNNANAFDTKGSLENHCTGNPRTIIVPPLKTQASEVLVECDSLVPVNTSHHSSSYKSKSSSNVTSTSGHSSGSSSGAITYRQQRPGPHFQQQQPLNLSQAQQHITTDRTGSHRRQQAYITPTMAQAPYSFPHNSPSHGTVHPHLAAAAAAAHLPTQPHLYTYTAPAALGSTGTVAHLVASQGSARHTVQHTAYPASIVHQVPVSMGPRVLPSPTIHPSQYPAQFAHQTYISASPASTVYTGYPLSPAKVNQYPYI
Sequence of MARK3 (human) (P27448 whole entry, looked up): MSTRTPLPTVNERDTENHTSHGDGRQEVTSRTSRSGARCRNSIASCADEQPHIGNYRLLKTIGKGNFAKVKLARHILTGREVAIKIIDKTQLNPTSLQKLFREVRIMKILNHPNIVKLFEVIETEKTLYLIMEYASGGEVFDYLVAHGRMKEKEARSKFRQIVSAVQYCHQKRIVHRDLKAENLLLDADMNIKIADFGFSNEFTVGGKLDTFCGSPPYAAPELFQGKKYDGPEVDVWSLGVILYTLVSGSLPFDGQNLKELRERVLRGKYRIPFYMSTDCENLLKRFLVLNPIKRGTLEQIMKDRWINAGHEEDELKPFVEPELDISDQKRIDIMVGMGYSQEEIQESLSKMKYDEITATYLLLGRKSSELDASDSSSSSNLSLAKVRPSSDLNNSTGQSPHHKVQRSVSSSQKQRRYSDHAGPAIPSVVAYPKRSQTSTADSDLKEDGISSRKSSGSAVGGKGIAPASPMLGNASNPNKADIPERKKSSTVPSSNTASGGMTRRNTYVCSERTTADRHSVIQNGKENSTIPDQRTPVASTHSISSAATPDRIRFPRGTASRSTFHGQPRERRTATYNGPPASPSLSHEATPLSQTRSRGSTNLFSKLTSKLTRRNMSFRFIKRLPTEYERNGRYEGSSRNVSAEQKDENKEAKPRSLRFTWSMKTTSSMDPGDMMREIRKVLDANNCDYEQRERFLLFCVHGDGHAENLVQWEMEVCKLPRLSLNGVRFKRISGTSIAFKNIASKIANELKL
Sequence of PIM1 (human) (P11309 whole entry, looked up): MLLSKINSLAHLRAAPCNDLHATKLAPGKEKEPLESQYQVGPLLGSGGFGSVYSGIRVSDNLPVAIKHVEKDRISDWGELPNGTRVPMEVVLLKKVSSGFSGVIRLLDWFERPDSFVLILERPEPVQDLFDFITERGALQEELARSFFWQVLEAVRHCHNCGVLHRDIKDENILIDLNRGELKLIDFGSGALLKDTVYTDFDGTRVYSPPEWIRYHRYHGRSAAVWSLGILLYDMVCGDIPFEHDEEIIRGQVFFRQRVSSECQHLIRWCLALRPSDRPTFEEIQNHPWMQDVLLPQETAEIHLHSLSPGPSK
Sequence of DYRK3 (human) (O43781 whole entry, looked up): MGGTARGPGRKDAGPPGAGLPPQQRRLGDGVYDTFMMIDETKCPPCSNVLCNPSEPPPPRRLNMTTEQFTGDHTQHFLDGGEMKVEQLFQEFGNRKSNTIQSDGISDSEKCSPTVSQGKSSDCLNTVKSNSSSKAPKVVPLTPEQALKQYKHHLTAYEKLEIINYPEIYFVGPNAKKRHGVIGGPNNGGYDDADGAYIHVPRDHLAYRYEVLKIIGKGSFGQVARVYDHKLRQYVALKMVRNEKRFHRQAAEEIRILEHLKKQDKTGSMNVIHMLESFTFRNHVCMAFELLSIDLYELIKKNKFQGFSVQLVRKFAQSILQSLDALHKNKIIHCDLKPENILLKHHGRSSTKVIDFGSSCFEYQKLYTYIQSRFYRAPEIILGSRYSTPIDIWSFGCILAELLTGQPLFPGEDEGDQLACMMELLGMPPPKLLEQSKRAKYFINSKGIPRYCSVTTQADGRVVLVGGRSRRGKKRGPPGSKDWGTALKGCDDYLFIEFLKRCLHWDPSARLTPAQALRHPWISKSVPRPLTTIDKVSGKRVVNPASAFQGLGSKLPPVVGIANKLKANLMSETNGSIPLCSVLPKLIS
Sequence of CaMK1 (human) (Q14012 whole entry, looked up): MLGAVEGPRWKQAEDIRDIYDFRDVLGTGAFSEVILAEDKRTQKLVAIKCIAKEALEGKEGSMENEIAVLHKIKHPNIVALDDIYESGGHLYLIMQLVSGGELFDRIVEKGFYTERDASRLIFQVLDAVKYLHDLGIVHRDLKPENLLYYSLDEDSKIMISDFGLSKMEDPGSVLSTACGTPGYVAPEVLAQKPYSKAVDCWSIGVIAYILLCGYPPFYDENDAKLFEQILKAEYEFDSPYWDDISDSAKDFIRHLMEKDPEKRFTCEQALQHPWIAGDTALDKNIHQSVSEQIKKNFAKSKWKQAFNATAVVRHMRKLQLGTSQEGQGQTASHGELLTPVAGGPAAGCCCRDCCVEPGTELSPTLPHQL

C/C(=C1/C(=O)Nc2ccc(NC(N)=O)cc21)c1ccc[nH]1
residual activity ([1]; compound 0.001 µM): 99% | residual activity ([1]; compound 0.01 µM): 83% | residual activity ([1]; compound 0.1 µM): 43% | residual activity ([2]; compound 0.001 µM): 88% | residual activity ([2]; compound 0.01 µM): 59% | residual activity ([2]; compound 0.1 µM): 18% | residual activity ([3]; compound 0.001 µM): 104% | residual activity ([3]; compound 0.01 µM): 116% | residual activity ([3]; compound 0.1 µM): 103% | residual activity ([4]; compound 0.001 µM): 89% | residual activity ([4]; compound 0.01 µM): 82% | residual activity ([4]; compound 0.1 µM): 51% | residual activity ([5]; compound 0.001 µM): 87% | residual activity ([5]; compound 0.01 µM): 33% | residual activity ([5]; compound 0.1 µM): 7% | residual activity ([6]; compound 0.001 µM): 77% | residual activity ([6]; compound 0.01 µM): 60% | residual activity ([6]; compound 0.1 µM): 42% | residual activity ([7]; compound 0.01 µM): 123% | residual activity ([7]; compound 0.1 µM): 118% | residual activity ([8]; compound 0.001 µM): 93% | residual activity ([8]; compound 0.01 µM): 61% | residual activity ([8]; compound 0.1 µM): 14% | residual activity ([9]; compound 0.001 µM): 95% | residual activity ([9]; compound 0.01 µM): 85% | residual activity ([9]; compound 0.1 µM): 93% | residual activity ([10]; compound 0.001 µM): 97% | residual activity ([10]; compound 0.01 µM): 98% | residual activity ([10]; compound 0.1 µM): 69% | residual activity ([11]; compound 0.001 µM): 97% | residual activity ([11]; compound 0.01 µM): 101% | residual activity ([11]; compound 0.1 µM): 87% | residual activity ([12]; compound 0.001 µM): 83% | residual activity ([12]; compound 0.01 µM): 36% | residual activity ([12]; compound 0.1 µM): 10% | residual activity ([13]; compound 0.001 µM): 104% | residual activity ([13]; compound 0.01 µM): 100% | residual activity ([13]; compound 0.1 µM): 105% | residual activity ([14]; compound 0.001 µM): 83% | residual activity ([14]; compound 0.01 µM): 74% | residual activity ([14]; compound 0.1 µM): 33% | residual activity ([15]; compound 0.001 µM): 102% | residual activity ([15]; compound 0.01 µM): 113% | residual activity ([15]; compound 0.1 µM): 107% | residual activity ([16]; compound 0.001 µM): 59% | residual activity ([16]; compound 0.01 µM): 21% | residual activity ([16]; compound 0.1 µM): 12% | residual activity ([17]; compound 0.001 µM): 114% | residual activity ([17]; compound 0.01 µM): 117% | residual activity ([17]; compound 0.1 µM): 106% | residual activity ([18]; compound 0.001 µM): 95% | residual activity ([18]; compound 0.01 µM): 91% | residual activity ([18]; compound 0.1 µM): 83% | residual activity ([19]; compound 0.01 µM): 102% | residual activity ([19]; compound 0.1 µM): 110% | residual activity ([20]; compound 0.001 µM): 85% | residual activity ([20]; compound 0.01 µM): 76% | residual activity ([21]; compound 0.001 µM): 100% | residual activity ([21]; compound 0.01 µM): 90% | residual activity ([21]; compound 0.1 µM): 94% | residual activity ([22]; compound 0.001 µM): 100% | residual activity ([22]; compound 0.01 µM): 104% | residual activity ([22]; compound 0.1 µM): 97% | residual activity ([23]; compound 0.001 µM): 95% | residual activity ([23]; compound 0.01 µM): 50% | residual activity ([23]; compound 0.1 µM): 13%

Cc1cc(SCc2sc(-c3ccc(C(F)(F)F)cc3)nc2C)ccc1OCC(=O)O
residual activity ([1]; compound 1.0 µM): 102% | residual activity ([1]; compound 10.0 µM): 88% | residual activity ([2]; compound 1.0 µM): 103% | residual activity ([2]; compound 10.0 µM): 111% | residual activity ([3]; compound 1.0 µM): 95% | residual activity ([3]; compound 10.0 µM): 62% | residual activity ([4]; compound 1.0 µM): 101% | residual activity ([4]; compound 10.0 µM): 156% | residual activity ([5]; compound 1.0 µM): 105% | residual activity ([5]; compound 10.0 µM): 90% | residual activity ([6]; compound 1.0 µM): 98% | residual activity ([6]; compound 10.0 µM): 102% | residual activity ([7]; compound 10.0 µM): 79% | residual activity ([8]; compound 1.0 µM): 93% | residual activity ([8]; compound 10.0 µM): 91% | residual activity ([9]; compound 1.0 µM): 92% | residual activity ([9]; compound 10.0 µM): 95% | residual activity ([10]; compound 1.0 µM): 79% | residual activity ([10]; compound 10.0 µM): 83% | residual activity ([11]; compound 1.0 µM): 103% | residual activity ([11]; compound 10.0 µM): 113% | residual activity ([12]; compound 1.0 µM): 97% | residual activity ([12]; compound 10.0 µM): 122% | residual activity ([13]; compound 1.0 µM): 91% | residual activity ([13]; compound 10.0 µM): 94% | residual activity ([14]; compound 1.0 µM): 83% | residual activity ([14]; compound 10.0 µM): 81% | residual activity ([15]; compound 1.0 µM): 96% | residual activity ([15]; compound 10.0 µM): 88% | residual activity ([16]; compound 1.0 µM): 91% | residual activity ([16]; compound 10.0 µM): 78% | residual activity ([17]; compound 1.0 µM): 83% | residual activity ([17]; compound 10.0 µM): 74% | residual activity ([18]; compound 1.0 µM): 98% | residual activity ([18]; compound 10.0 µM): 105% | residual activity ([19]; compound 1.0 µM): 107% | residual activity ([19]; compound 10.0 µM): 103% | residual activity ([20]; compound 1.0 µM): 107% | residual activity ([20]; compound 10.0 µM): 105% | residual activity ([21]; compound 10.0 µM): 39% | residual activity ([22]; compound 1.0 µM): 103% | residual activity ([22]; compound 10.0 µM): 85% | residual activity ([23]; compound 1.0 µM): 84% | residual activity ([23]; compound 10.0 µM): 74%
